The text below walks through data of patent publication US5900436A, “Substituted indanylidineacetylguanidines, processes for their preparation, their use as medicaments or diagnostics and medicaments containing them” (priority 1996, dated 1999).

Assay [1] deals with T1, Na^+ /H^+ exchanger (Oryctolagus cuniculus, UniProt P23791).
T1 construct: increase the exchanger activity in the rabbit erythrocytes; endogenous in cells; host or cells: erythrocytes in blood of cholesterol-fed New Zealand albino rabbits
The experiment in a line: Sodium-Proton exchange inhibition in rabbit erythrocytes. Particulars: concentration necessary to reduce the erythrocyte sodium content to 50%; erythrocytes of rabbits fed 2% cholesterol diet six weeks; 37° C., 1 hour, hyperosmolar sucrose buffer with ouabain. In kind it is cell-based, rabbit (Albino rabbits of New Zealand strain). The source says:
Sodium -Proton exchange inhibition in rabbit erythrocytes:
Albino rabbits of New Zealand strain were fed with 2% cholesterol diet for six weeks prior to collecting blood for the determination of Na^+ /H^+ exchanger activity in the erythrocytes. Hypercholesteremia has been reported to increase the exchanger activity in the rabbit erythrocytes (Scholz et al, 1990; Arteriosklerose-Neue Aspekte aus Zellbiologie und Molekulargenetik, Epidemiologie und Klinik; Assmann, G. et al, Eds, Braunschweig, Wiesbaden, Vieweg, 296-302 ). Blood samples were collected from the ear vein and hematocrit was determined. About […] of blood was incubated at 37° C. for 1 hour with hyperosmolar sucrose buffer containing 0.1 mmoles Ouabain in the presence and absence of test sample. After the incubation period, the reaction was stopped by addition of 5 ml of ice cold MgCl2 solution containing 0.1 mmole Ouabain. The erythrocytes were washed three times with 5 ml quantities of MgCl2 solution. They were hemolyzed by the addition of 4 ml of distilled water and the sodium content of the hemolyzate was determined by flame-photometry. The activity of the test compound was determined by its ability to reduce the sodium content of the erythrocyte and was expressed as IC50 which is the concentration necessary to reduce the erythrocyte sodium content to 50%.

For assay [2], the system named is rat hearts. Particulars: isolated rat hearts, cited from earlier work.
The conditions of assay [3]: Circulation 79, 1257-1263 (1989); cited from earlier work.

T1 sequence (P23791 whole entry): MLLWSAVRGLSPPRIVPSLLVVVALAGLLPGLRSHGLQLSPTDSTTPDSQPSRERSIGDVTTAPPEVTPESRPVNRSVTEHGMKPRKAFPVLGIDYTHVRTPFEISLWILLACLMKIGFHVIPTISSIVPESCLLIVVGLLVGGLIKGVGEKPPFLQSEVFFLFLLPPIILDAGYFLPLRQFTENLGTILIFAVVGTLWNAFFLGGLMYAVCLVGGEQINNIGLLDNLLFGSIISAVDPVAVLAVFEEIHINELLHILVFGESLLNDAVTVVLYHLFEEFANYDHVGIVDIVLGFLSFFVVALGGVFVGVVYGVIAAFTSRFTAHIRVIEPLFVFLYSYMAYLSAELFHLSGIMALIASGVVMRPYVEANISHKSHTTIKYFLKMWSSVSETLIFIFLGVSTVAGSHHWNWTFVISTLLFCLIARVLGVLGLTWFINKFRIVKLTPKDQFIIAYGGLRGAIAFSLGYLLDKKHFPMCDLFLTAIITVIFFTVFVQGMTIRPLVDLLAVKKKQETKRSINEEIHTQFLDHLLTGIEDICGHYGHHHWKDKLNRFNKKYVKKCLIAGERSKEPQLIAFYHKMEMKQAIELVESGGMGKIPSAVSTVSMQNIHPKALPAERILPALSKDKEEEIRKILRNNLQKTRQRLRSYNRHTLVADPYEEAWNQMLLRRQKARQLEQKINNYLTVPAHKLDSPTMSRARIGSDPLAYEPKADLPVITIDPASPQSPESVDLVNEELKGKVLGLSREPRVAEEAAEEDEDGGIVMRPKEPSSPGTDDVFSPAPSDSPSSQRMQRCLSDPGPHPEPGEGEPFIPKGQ

As usually defined, the IC50 is the concentration that inhibits the measured activity by half. Read a low IC50 as inhibition by little substance. Regarding `Cc1cccc2c1CCC2=CC(=O)N=C(N)N` [Compound No. 4, 4-methyl-1-indanylidineacetyl-guanidine-methanesulfonic acid], half-maximal inhibition in assay [1] (IC50) required 0.7 µM. As to `N=C(N)NC(=O)c1nc(Cl)c(N)nc1N` [amiloride], in assay [2] (Eur. Heart J. 9 {supplement 1}: 167 (1988)), the “suppression of artificially induced ventricular fibrillation” value is given as “suppress an artificially induced ventricular fibrillation completely”. Further, in assay [3], the antiarrhythmic effect result was “only slight”. In assay [1], `COc1ccc2c(c1)C(=CC(=O)N=C(N)N)CC2` [compound 6] came in with an IC50 of 0.66 µM. Consider `Cc1ccc2c(c1)CCC2=CC(=O)N=C(N)N` [compound 7], for which, in assay [1], inhibition was half-maximal at 0.45 µM (IC50).

As to `CCN(c1nc(N)c(C(=O)N=C(N)N)nc1Cl)C(C)C` [ethylisopropylamiloride], the “potency relative to amiloride against artificially induced ventricular fibrillation” value in assay [2] is reported as “even more potent than amiloride”.
